Measurements from patent US11866405B2, “Substituted indazoles as IRAK4 inhibitors” (AstraZeneca AB, priority 2020, dated 2024).

Columns and labels:
[1] = target: IRAK4 auto-phosphorylation (Homo sapiens (Human), UniProt Q9NWZ3); test: IRAK4 phosphorylation cell assay in IL-1β-stimulated Karpas-299 cells; assay type: cell-based; settings: IL-1β 22.7 ng/mL, pIRAK4 (Thr345/Ser346), geometric mean of at least 2 experiments
Description: IRAK4 Phosphorylation Cell Assay
The activation of IRAK4 by TLR or IL-1R ligands leads to IRAK4 auto-phosphorylation, which can be prevented by IRAK4 kinase inhibitors. The effect of IRAK4 inhibitor compounds on IRAK4 auto-phosphorylation was assessed in IL-1β-stimulated Karpas-299 cells as a measurement of cellular potency. Karpas-299 cells were cultured in RPMI 1640 (Gibco 61870-010) containing 10% FBS (Gibco #10270). Cells were plated at 2×10^4 cells per well in poly-D-lysine coated 384 well plates (Corning #356663) to which compounds had been added at various concentrations (10 point half log dose response with a final top concentration of 30 μM) using an Echo 655 (Labcyte Inc). Cells were centrifuged (250 g, 4 mins), incubated at 37° C. for 1 h, then stimulated with 22.7 ng/mL recombinant IL-1β (R&D Systems, #201-LB-025) at 37° C. for 10 mins, followed by fixation in 4% paraformaldehyde for 10 mins and permeabilization in ice-cold 70% MeOH for 30 mins. Cells were washed twice with phosphate-buffered saline (PBS) on a BlueWasher (BlueCatBio) then blocked with PBS containing 10% FBS for 20 mins. Blocking solution was removed with a BlueWasher and cells were stained with anti-pIRAK4 (Thr345/Ser346) (CST, #11927, 1:400) in blocking buffer with 0.05% Tween-20 for 1 h, then washed twice with PBS containing 0.05% Tween-20 on a BlueWasher, followed by staining with a Alexa 647-conjugated secondary anti-rabbit IgG antibody (CST, #4414, 1:2,000) and Hoechst 33342 (Sigma, 1:2,000) in blocking buffer with 0.05% Tween-20 for 30 mins. Finally, the cells were washed twice with PBS containing 0.05% Tween-20 and imaged on an ImageXpress Micro (Molecular Devices) with a 10× air objective using the appropriate filters. Images were analysed in Columbus (PerkinElmer) and the fluorescence intensity per cell from the secondary antibody was quantified. The quantified data were analysed in Genedata Screener 15 (Genedata AG). […] IC50 values are the geometric mean of at least 2 experiments.

[2] = target: human recombinant IRAK4 protein (Homo sapiens (Human), UniProt Q9NWZ3); test: IRAK4 enzyme assay (mass spectrometry readout); assay type: biochemical; settings: 3 mM ATP, 0.2 nM enzyme; geometric mean of at least n=2, * single experiment
Sequence of human recombinant IRAK4 protein (Q9NWZ3 whole entry): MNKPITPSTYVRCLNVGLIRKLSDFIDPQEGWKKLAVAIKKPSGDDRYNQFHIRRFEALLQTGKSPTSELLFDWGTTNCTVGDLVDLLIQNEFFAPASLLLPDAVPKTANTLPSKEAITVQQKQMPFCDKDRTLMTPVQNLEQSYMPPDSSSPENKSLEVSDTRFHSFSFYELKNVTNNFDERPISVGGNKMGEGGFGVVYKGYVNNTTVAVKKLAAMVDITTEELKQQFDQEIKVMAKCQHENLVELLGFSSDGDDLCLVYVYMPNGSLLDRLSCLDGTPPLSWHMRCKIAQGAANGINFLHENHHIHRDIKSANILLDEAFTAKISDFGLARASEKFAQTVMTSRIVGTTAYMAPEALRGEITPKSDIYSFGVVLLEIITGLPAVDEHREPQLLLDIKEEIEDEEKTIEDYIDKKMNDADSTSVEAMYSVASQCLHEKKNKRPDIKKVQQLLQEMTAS
Description: Potency of IRAK4 Inhibitor Compounds in IRAK4 Enzyme Assay
The inhibitory activity of compounds against IRAK4 were determined in an enzymatic assay using mass spectrometry readout. Ten point half-log compound concentration response curves, with a top concentration of 1 μM or 10 μM, were generated from 10 mM stocks of compound solubilized in DMSO using an Echo 655 (Labcyte Inc) and added to 384 well assay plates (Greiner #781280). To the assay plates, 10 μL of human recombinant IRAK4 protein (Life Technologies #PV4002) diluted to a final concentration of 0.2 nM in assay buffer (50 mM Tris-HCl pH 7.4, 10 mM MgCl, 5 mM glutathione, 0.01% BSA, 3 mM ATP) was added. The enzyme was incubated with the compounds at room temperature for 15 minutes before a peptide substrate ([…], Innovagen custom synthesis, 10 mM in DMSO) was added to each well to a final concentration of 10 μM using an Echo 655 (Labcyte Inc). After two hours at room temperature, the reaction was stopped with 90 μL of 0.4% formic acid (Merck #33015). The unphosphorylated and phosphorylated peptide were measured by LC-MS/MS on a Waters TQ-S mass spectrometer. Peaks were integrated using the TargetLynx software and the ratios between phosphorylated and unphosphorylated peptides were calculated. Curves were fitted and compound potencies determined in Genedata Screener 15 (Genedata AG). Data presented are the geometric mean of at least n=2, or as denoted by an * are obtained from a single experiment.

Sequence of IRAK4 auto-phosphorylation (Q9NWZ3 whole entry): as above

IC50 [1] [nM]	IC50 [2] [nM]	Molecule
257	10.6	6-Cyclopropoxy-2-((1s,4s)-4-(N-methylacetamido)cyclohexyl)-N-(pyrazolo[1,5-a]pyrimidin-3-yl)-2H-indazole-5-carboxamide [Example 32]
158	–	COc1cc2nn([C@H]3CC[C@@H](O)C[C@@H]3C)cc2cc1C(=O)Nc1cnn2cccnc12 (relative stereo) [Example 40]
331	14.3	COc1cc2nn([C@H]3CC[C@@H](O)C[C@@H]3C)cc2cc1C(=O)Nc1cnn2cccnc12 (relative stereo) [Example 41]
89	–	C[C@H]1C[C@H](O)CC[C@@H]1n1cc2cc(C(=O)Nc3cnn4cccnc34)c(OC3CC3)cc2n1 (relative stereo) [Example 42, rel-6-Cyclopropoxy-2-(1S,2S,4R)-4-hydroxy-2-methylcyclohexyl)-N-(pyrazolo[1,5-a]pyrimidin-3-yl)-2H-indazole-5-carboxamide]
101	1.8	C[C@H]1C[C@H](O)CC[C@@H]1n1cc2cc(C(=O)Nc3cnn4cccnc34)c(OC3CC3)cc2n1 (relative stereo) [Example 43, rel-6-Cyclopropoxy-2-(1S,2S,4R)-4-hydroxy-2-methylcyclohexyl)-N-(pyrazolo[1,5-a]pyrimidin-3-yl)-2H-indazole-5-carboxamide]
25	–	C[C@@]1(O)CCC[C@H](n2cc3cc(C(=O)Nc4cnn5cccnc45)c(OC4CC4)cc3n2)C1 (relative stereo) [Example 54, rel-6-cyclopropoxy-2-(1S,3R)-3-hydroxy-3-methylcyclohexyl)-N-(pyrazolo[1,5-a]pyrimidin-3-yl)-2H-indazole-5-carboxamide]
51	0.7	C[C@@]1(O)CCC[C@H](n2cc3cc(C(=O)Nc4cnn5cccnc45)c(OC4CC4)cc3n2)C1 (relative stereo) [Example 55, rel-6-cyclopropoxy-2-(1S,3R)-3-hydroxy-3-methylcyclohexyl)-N-(pyrazolo[1,5-a]pyrimidin-3-yl)-2H-indazole-5-carboxamide]
9	0.4	COc1cc2nn([C@@H]3CC[C@]4(CC(=O)N(C)C4)C[C@H]3C)cc2cc1C(=O)Nc1cnc2cccnn12 (relative stereo) [Example 70, rel-2-(5R,7R,8R)-2,7-Dimethyl-3-oxo-2-azaspiro[4.5]decan-8-yl)-N-(imidazo[1,2-b]pyridazin-3-yl)-6-methoxy-2H-indazole-5-carboxamide or rel-2-(5R,7S,8S)-2,7-Dimethyl-3-oxo-2-azaspiro[4.5]decan-8-yl)-N-(imidazo[1,2-b]pyridazin-3-yl)-6-methoxy-2H-indazole-5-carboxamide]
30	1.9	COc1cc2nn([C@@H]3CC[C@]4(CC(=O)N(C)C4)C[C@H]3C)cc2cc1C(=O)Nc1cnc2cccnn12 (relative stereo) [Example 71, rel-2-(5R,7R,8R)-2,7-Dimethyl-3-oxo-2-azaspiro[4.5]decan-8-yl)-N-(imidazo[1,2-b]pyridazin-3-yl)-6-methoxy-2H-indazole-5-carboxamide or rel-2-(5R,7S,8S)-2,7-Dimethyl-3-oxo-2-azaspiro[4.5]decan-8-yl)-N-(imidazo[1,2-b]pyridazin-3-yl)-6-methoxy-2H-indazole-5-carboxamide]
7	0.4	COc1cc2nn([C@@H]3CC[C@]4(CC(=O)N(C)C4)C[C@H]3C)cc2cc1C(=O)Nc1cnc2cccnn12 (relative stereo) [Example 72, rel-2-(5R,7R,8R)-2,7-Dimethyl-3-oxo-2-azaspiro[4.5]decan-8-yl)-N-(imidazo[1,2-b]pyridazin-3-yl)-6-methoxy-2H-indazole-5-carboxamide or rel-2-(5R,7S,8S)-2,7-Dimethyl-3-oxo-2-azaspiro[4.5]decan-8-yl)-N-(imidazo[1,2-b]pyridazin-3-yl)-6-methoxy-2H-indazole-5-carboxamide]
57	3.2	COc1cc2nn([C@@H]3CC[C@]4(CC(=O)N(C)C4)C[C@H]3C)cc2cc1C(=O)Nc1cnc2cccnn12 (relative stereo) [Example 73, rel-2-(5R,7R,8R)-2,7-Dimethyl-3-oxo-2-azaspiro[4.5]decan-8-yl)-N-(imidazo[1,2-b]pyridazin-3-yl)-6-methoxy-2H-indazole-5-carboxamide or rel-2-(5R,7S,8S)-2,7-Dimethyl-3-oxo-2-azaspiro[4.5]decan-8-yl)-N-(imidazo[1,2-b]pyridazin-3-yl)-6-methoxy-2H-indazole-5-carboxamide]
15	–	COc1cc2nn([C@H]3CCC[C@H](O)[C@@H]3C)cc2cc1C(=O)Nc1cnc2cccnn12 (relative stereo) [Example 106, rel-2-(1S,2R,3S)-3-Hydroxy-2-methylcyclohexyl)-N-(imidazo[1,2-b]pyridazin-3-yl)-6-methoxy-2H-indazole-5-carboxamide]
24	0.9	COc1cc2nn([C@H]3CCC[C@H](O)[C@@H]3C)cc2cc1C(=O)Nc1cnc2cccnn12 (relative stereo) [Example 107, rel-2-(1S,2R,3S)-3-Hydroxy-2-methylcyclohexyl)-N-(imidazo[1,2-b]pyridazin-3-yl)-6-methoxy-2H-indazole-5-carboxamide]
21	0.7	COc1cc2nn([C@H]3CC[C@H](N(C)C(=O)[C@@H]4CC[C@@H](O)C4)CC3)cc2cc1C(=O)Nc1cnn2cccnc12 (relative stereo) [Example 112]
23	0.7	COc1cc2nn([C@H]3CC[C@H](N(C)C(=O)[C@@H]4CC[C@@H](O)C4)CC3)cc2cc1C(=O)Nc1cnn2cccnc12 (relative stereo) [Example 113]
16	0.7	COc1cc2nn([C@H]3CC[C@H](N(C)C(=O)[C@@H]4CC[C@H](O)C4)CC3)cc2cc1C(=O)Nc1cnn2cccnc12 (relative stereo) [Example 114]
20	–	COc1cc2nn([C@H]3CC[C@H](N(C)C(=O)[C@@H]4CC[C@H](O)C4)CC3)cc2cc1C(=O)Nc1cnn2cccnc12 (relative stereo) [Example 115]
–	3	COc1cc2nn([C@@H]3CC[C@]4(CCC(=O)N4C)C[C@H]3C)cc2cc1C(=O)Nc1cnc2cccnn12 (relative stereo) [Example 123, rel-2-(5S,7R,8R)-1,7-Dimethyl-2-oxo-1-azaspiro[4.5]decan-8-yl)-N-(imidazo[1,2-b]pyridazin-3-yl)-6-methoxy-2H-indazole-5-carboxamide]
44	0.7	COc1cc2nn(C3CCC4(CC3)CC(C)(O)C4)cc2cc1C(=O)Nc1cnc2cccnn12 (single isomer, unassigned) [Example 6, 2-(2-Hydroxy-2-methylspiro[3.5]nonan-7-yl)-N-(imidazo[1,2-b]pyridazin-3-yl)-6-methoxy-2H-indazole-5-carboxamide]
57	1.6	COc1cc2nn([C@H]3CCC[C@@H](O)C3)cc2cc1C(=O)Nc1cnc2cccnn12 (single isomer, unassigned) [Example 9]
–	2.3	COc1cc2nn([C@@H]3CC[C@H](O)[C@H](C)C3)cc2cc1C(=O)Nc1cnc2cccnn12 (single isomer, unassigned) [Example 76]
10	–	COc1cc2nn([C@H]3CC[C@H](N(C)C(=O)[C@H](C)O)CC3)cc2cc1C(=O)Nc1cnc2cccnn12 [Example 94, 2-((1S,4r)-4-((S)-2-Hydroxy-N-methylpropanamido)cyclohexyl)-N-(imidazo[1,2-b]pyridazin-3-yl)-6-methoxy-2H-indazole-5-carboxamide]
